The values that follow come from patent US20170320848A1, “COMPOUNDS FOR USE IN ANTHELMINTHIC TREATMENT” (Bayer Animal Health GMBH, priority 2014, published 2017).

Molecules are shown by their SMILES.

What is called mortality is the share of the test organisms that died.

Tested on in the first series: not listed separately
The experiment in a line: Measurement of LogP values by HPLC on reversed phase columns (EEC directive 79/831 Annex V.A8). The series is classed as physicochemical. The following applies: acidic range, 0.1% formic acid in water and acetonitrile as eluent.
`O=C(NCC(F)(F)c1ccc(-c2ccc(OC(F)(F)F)cc2)cc1Cl)c1ccccc1C(F)(F)F` [Example 39]: the “logP (HCOOH)[a]” value was 4.67.

For the compound `O=C(NCC(F)(F)c1ccc(-c2ccc(C(F)F)cc2)cc1Cl)c1ccccc1C(F)(F)F` [Example 40], the “logP (HCOOH)[a]” value is recorded as 3.99.

`O=C(NCC(F)(F)c1ccc(-c2ccc(C(F)(F)F)cc2)cc1Cl)c1ccccc1C(F)(F)F` [Example 41]: the “logP (HCOOH)[a]” value was found to be 4.56.

Turning to `O=C(NCC(F)(F)c1ccc(-c2cccc(OC(F)(F)F)c2)cc1Cl)c1ccccc1C(F)(F)F` [Example 42], the “logP (HCOOH)[a]” value was 4.61.

Take `O=C(NCC(F)(F)c1ccc(-c2ccc(S(=O)(=O)C(F)(F)F)cc2)cc1Cl)c1ccccc1C(F)(F)F` [Example 45]: the “logP (HCOOH)[a]” value was 4.32.

Consider `N#Cc1ccc(-c2cc(F)c(C(F)(F)CNC(=O)c3ccccc3C(F)(F)F)c(F)c2)cc1` [Example 46], for which the “logP (HCOOH)[a]” value stood at 3.53.

As for `O=C(NCC(F)(F)c1c(F)cc(-c2ccc(OC(F)(F)F)cc2)cc1F)c1ccccc1C(F)(F)F` [Example 48], the “logP (HCOOH)[a]” value came to 4.56.

As to `COc1cc(-c2ccc(C#N)cc2)ccc1C(F)(F)CNC(=O)c1ccccc1C(F)(F)F` [Example 51], the “logP (HCOOH)[a]” value is listed as 3.43.

As to `O=C(NCC(F)(F)c1ccc(-c2ccc([S+]([O-])C(F)(F)F)cc2)cc1Cl)c1ccccc1C(F)(F)F` (stereo not shown) [Example 56], the “logP (HCOOH)[a]” value worked out at 3.87.

For `O=C(NCC(F)(F)c1ccc(-c2ccc(F)cc2)cc1Cl)c1ccccc1I` [Example 57], the “logP (HCOOH)[a]” value was determined as 4.17.

In the case of `O=C(NCC(F)(F)c1ccc(-c2ccc(F)cc2)cc1Cl)c1ccccc1Br` [Example 58], the “logP (HCOOH)[a]” value came out at 4.05.

On to `O=C(NCC(F)(F)c1ccc(-c2ccc(F)cc2)cc1Cl)c1ccccc1Cl` [Example 59], for which the “logP (HCOOH)[a]” value came out at 4.0.

For the compound `O=C(NCC(F)(F)c1ccc(-c2cc(F)c(OC(F)F)c(F)c2)cc1Cl)c1ccccc1C(F)(F)F` [Example 66], the “logP (HCOOH)[a]” value was determined as 4.20.

`O=C(NCC(F)(F)c1ccc(-c2cccc(C(F)(F)F)c2)cc1Cl)c1ccccc1C(F)(F)F` [Example 67]: the “logP (HCOOH)[a]” value was found to be 4.55.

Regarding `O=C(NCC(F)(F)c1ccc(-c2ccc3c(c2)OC(F)(F)O3)cc1Cl)c1ccccc1C(F)(F)F` [Example 71], the “logP (HCOOH)[a]” value is on record as 4.57.

As to `N#Cc1cc(-c2ccc(OC(F)(F)F)cc2)ccc1C(F)(F)CNC(=O)c1ccccc1C(F)(F)F` [Example 72], the “logP (HCOOH)[a]” value was 4.23.

Regarding `N#Cc1ccc(-c2ccc(C(F)(F)CNC(=O)c3ccccc3C(F)(F)F)c(C#N)c2)cc1` [Example 73], the “logP (HCOOH)[a]” value turned out to be 1.33.

Take `N#Cc1cc(-c2ccc(F)cc2)ccc1C(F)(F)CNC(=O)c1ccccc1C(F)(F)F` [Example 74]: the “logP (HCOOH)[a]” value worked out at 3.63.

Consider `O=C(NCC(F)(F)c1ccc(-c2ccc(N3CCOCC3)cc2)cc1Cl)c1ccccc1C(F)(F)F` [Example 75], for which the “logP (HCOOH)[a]” value was 3.83.

With `Cc1cc(-c2ccc(OC(F)(F)F)cc2)ccc1C(F)(F)CNC(=O)c1ccccc1C(F)(F)F` [Example 76], the “logP (HCOOH)[a]” value is recorded as 4.68.

Consider `COc1cc(-c2ccc(OC(F)(F)F)cc2)ccc1C(F)(F)CNC(=O)c1ccccc1C(F)(F)F` [Example 77], for which the “logP (HCOOH)[a]” value is listed as 4.42.

In the case of `O=C(NCC(F)(F)c1ccc(-c2ccc(N3CCCC3)cc2)cc1Cl)c1ccccc1C(F)(F)F` [Example 78], the “logP (HCOOH)[a]” value is on record as 5.08.

Consider `N#Cc1cc(-c2cccc(C(F)F)c2)ccc1C(F)(F)CNC(=O)c1ccccc1C(F)(F)F` [Example 79], for which the “logP (HCOOH)[a]” value is 3.59.

As to `Cc1cc(-c2ccc(C(F)F)cc2)ccc1C(F)(F)CNC(=O)c1ccccc1C(F)(F)F` [Example 80], the “logP (HCOOH)[a]” value is 4.06.

On to `O=C(NCC(F)(F)c1c(F)cc(-c2ccc(C(F)F)cc2)cc1F)c1ccccc1C(F)(F)F` [Example 81], for which the “logP (HCOOH)[a]” value is listed as 3.9.

As for `O=C(NCC(F)(F)c1c(F)cc(-c2cccc(C(F)F)c2)cc1F)c1ccccc1C(F)(F)F` [Example 82], the “logP (HCOOH)[a]” value is on record as 3.83.

As for `N#Cc1cc(-c2ccc(SC(F)(F)F)cc2)ccc1C(F)(F)CNC(=O)c1ccccc1C(F)(F)F` [Example 83], the “logP (HCOOH)[a]” value came out at 4.5.

Consider `CN1CCN(c2ccc(-c3ccc(C(F)(F)CNC(=O)c4ccccc4C(F)(F)F)c(Cl)c3)cc2)CC1` [Example 84], for which the “logP (HCOOH)[a]” value came out at 1.84.

As to `N#Cc1cc(-c2ccc(C(F)(F)F)cc2)ccc1C(F)(F)CNC(=O)c1ccccc1C(F)(F)F` [Example 85], the “logP (HCOOH)[a]” value is listed as 4.07.

On to `O=C(NCC(F)(F)c1c(F)cc(-c2ccc(C(F)(F)F)cc2)cc1F)c1ccccc1C(F)(F)F` [Example 86], for which the “logP (HCOOH)[a]” value worked out at 4.38.

As for `COc1cc(-c2ccc(C(F)(F)F)cc2)ccc1C(F)(F)CNC(=O)c1ccccc1C(F)(F)F` [Example 87], the “logP (HCOOH)[a]” value is recorded as 4.33.

`Cc1cc(-c2ccc(C(F)(F)F)cc2)ccc1C(F)(F)CNC(=O)c1ccccc1C(F)(F)F` [Example 88]: the “logP (HCOOH)[a]” value is 4.62.

On to `N#Cc1cc(-c2ccc(C(F)F)cc2)ccc1C(F)(F)CNC(=O)c1ccccc1C(F)(F)F` [Example 89], for which the “logP (HCOOH)[a]” value came out at 3.59.

As to `Cc1cc(-c2cccc(C(F)F)c2)ccc1C(F)(F)CNC(=O)c1ccccc1C(F)(F)F` [Example 90], the “logP (HCOOH)[a]” value worked out at 4.07.

As to `COc1cc(-c2ccc(C(F)F)cc2)ccc1C(F)(F)CNC(=O)c1ccccc1C(F)(F)F` [Example 91], the “logP (HCOOH)[a]” value was 3.81.

Take `COc1cc(-c2cccc(C(F)F)c2)ccc1C(F)(F)CNC(=O)c1ccccc1C(F)(F)F` [Example 92]: the “logP (HCOOH)[a]” value is 3.81.

As to `N#Cc1ccc(-c2ccc(C(F)(F)CNC(=O)c3ccccc3C(F)(F)F)c(Cl)c2)c(F)c1` [Example 93], the “logP (HCOOH)[a]” value came to 3.76.

As to `N#Cc1cc(-c2ccc(C(F)(F)CNC(=O)c3ccccc3C(F)(F)F)c(Cl)c2)ccc1F` [Example 96], the “logP (HCOOH)[a]” value came to 3.81.

Turning to `CC(=O)N1CCN(c2ccc(-c3ccc(C(F)(F)CNC(=O)c4ccccc4C(F)(F)F)c(Cl)c3)cc2)CC1` [Example 104], the “logP (HCOOH)[a]” value worked out at 3.17.

With `O=C(NCC(F)(F)c1ccc(-c2ccc(OC(F)(F)F)c(F)c2)cc1Cl)c1ccccc1C(F)(F)F` [Example 106], the “logP (HCOOH)[a]” value was determined as 4.8.

Take `N#Cc1cc(-c2cc(F)c(F)c(F)c2)ccc1C(F)(F)CNC(=O)c1ccccc1C(F)(F)F` [Example 107]: the “logP (HCOOH)[a]” value amounted to 3.89.

On to `O=C(NCC(F)(F)c1ccc(-c2cc(F)c(Cl)c(F)c2)cc1Cl)c1ccccc1C(F)(F)F` [Example 110], for which the “logP (HCOOH)[a]” value was found to be 4.77.

`O=C(NCC(F)(F)c1ccc(-c2cc(F)c(F)c(F)c2)cc1Cl)c1nccnc1C(F)(F)F` [Example 111]: the “logP (HCOOH)[a]” value stood at 4.05.

For `O=C(NCC(F)(F)c1ccc(-c2ccc(N3CCOCC3)c(F)c2)cc1Cl)c1ccccc1C(F)(F)F` [Example 113], the “logP (HCOOH)[a]” value is 4.05.

In the case of `O=C(NCC(F)(F)c1ccc(-c2cc(F)c(F)c(F)c2)cc1Cl)c1ccccc1I` [Example 114], the “logP (HCOOH)[a]” value is recorded as 4.34.

`O=C(NCC(F)(F)c1ccc(-c2cc(F)c(F)c(F)c2)cc1Cl)c1ccccc1Br` [Example 116]: the “logP (HCOOH)[a]” value is recorded as 4.28.

Consider `COc1cc(-c2cc(F)c(F)c(F)c2)ccc1C(F)(F)CNC(=O)c1ccccc1C(F)(F)F` [Example 118], for which the “logP (HCOOH)[a]” value is recorded as 4.23.

As for `Cc1cc(-c2cc(Cl)c(F)c(Cl)c2)ccc1C(F)(F)CNC(=O)c1ccccc1C(F)(F)F` [Example 128], the “logP (HCOOH)[a]” value came to 5.08.

Staying with this series, now noted: reversed phase HPLC columns, acidic range, 0.1% formic acid in water and acetonitrile as eluent, read-out: logP (HCOOH)[a].
For `CS(=O)(=O)c1ccc(-c2ccc(C(F)(F)CNC(=O)c3ccccc3C(F)(F)F)c(Cl)c2)cc1` [Example 24], the chromatographic logP stood at 2.99.

With `CN(C)c1ccc(-c2ccc(C(F)(F)CNC(=O)c3ccccc3C(F)(F)F)c(Cl)c2)cc1` [Example 28], the chromatographic logP came to 4.28.

For the compound `CNc1ccc(-c2ccc(C(F)(F)CNC(=O)c3ccccc3C(F)(F)F)c(Cl)c2)cc1` [Example 29], the chromatographic logP amounted to 3.59.

With `CC(=O)Nc1ccc(-c2ccc(C(F)(F)CNC(=O)c3ccccc3C(F)(F)F)c(Cl)c2)cc1` [Example 30], the chromatographic logP is 2.93.

Take `NCC(F)(F)c1ccc(-c2ccc(F)cc2)cc1Cl` [Example VII-1, 2-[2-chloro-4-(4-fluorophenyl)phenyl]-2,2-difluoro-ethanamine]: the chromatographic logP is 1.35.

The series is the same for the next values; noted with them: reversed phase HPLC columns, neutral range, 0.001 molar ammonium acetate solution in water and acetonitrile as eluent, read-out: LogP[b].
In the case of `NCC(F)(F)c1ccc(-c2ccc(F)cc2)cc1Cl` [Example VII-1, 2-[2-chloro-4-(4-fluorophenyl)phenyl]-2,2-difluoro-ethanamine], the chromatographic logP turned out to be 3.1.

For a further series, the system named is Cooperia curticei. The experiment in a line: Cooperia curticei assay (COOPCU), larval mortality. The series is classed as cell-based. As to conditions: Cooperia curticei, 120 h; application rate 20 ppm, after 5 days; read-out: activity (percentage of larval mortality). As to the method: Cooperia Curticei—Assay (COOPCU)
Solvent: dimethyl sulfoxide
To produce a suitable preparation, 10 mg of active compound are dissolved in 0.5 ml solvent, and the concentrate is diluted with “Ringer's solution” to the desired concentration.
Approximately 40 nematode larvae (Cooperia curticei) are transferred into a test tube containing the compound solution.
After 5 days percentage of larval mortality is recorded. 100% efficacy means all larvae are killed; 0% efficacy means no larvae are killed.
As for `COc1ccc(-c2ccc(C(F)(F)CNC(=O)c3ccccc3C(F)(F)F)c(F)c2)cc1` [Example 6], the mortality at 20 ppm is 80%.

`CN(C)c1ccc(-c2ccc(C(F)(F)CNC(=O)c3ccccc3C(F)(F)F)c(C(F)(F)F)c2)cc1` [Example 10]: the mortality at 20 ppm is 80%.

In the case of `CN(C)c1ccc(-c2ccc(C(F)(F)CNC(=O)c3ccccc3C(F)(F)F)c(Cl)c2)cc1` [Example 28], the mortality at 20 ppm is 80%.

Turning to `CNc1ccc(-c2ccc(C(F)(F)CNC(=O)c3ccccc3C(F)(F)F)c(Cl)c2)cc1` [Example 29], the mortality at 20 ppm stood at 80%.

The series is the same for the next values; noted with them: application rate 20 ppm, after 5 days.
Take `COc1cc(-c2ccc(C#N)cc2)ccc1C(F)(F)CNC(=O)c1ccccc1C(F)(F)F` [Example 51]: the “activity (percentage of larval mortality)” value is 90%.

As for `N#Cc1cc(-c2ccc(F)cc2)ccc1C(F)(F)CNC(=O)c1ccccc1C(F)(F)F` [Example 74], the “activity (percentage of larval mortality)” value was 90%.

For `O=C(NCC(F)(F)c1ccc(-c2ccc(N3CCCC3)cc2)cc1Cl)c1ccccc1C(F)(F)F` [Example 78], the “activity (percentage of larval mortality)” value came out at 90%.

Regarding `N#Cc1cc(-c2cccc(C(F)F)c2)ccc1C(F)(F)CNC(=O)c1ccccc1C(F)(F)F` [Example 79], the “activity (percentage of larval mortality)” value was 80%.

In the case of `COc1cc(-c2ccc(C(F)(F)F)cc2)ccc1C(F)(F)CNC(=O)c1ccccc1C(F)(F)F` [Example 87], the “activity (percentage of larval mortality)” value amounted to 90%.

In the case of `COc1cc(-c2ccc(C(F)F)cc2)ccc1C(F)(F)CNC(=O)c1ccccc1C(F)(F)F` [Example 91], the “activity (percentage of larval mortality)” value is 80%.
